From patent US20230136075A1, “TREATMENT FOR SEPSIS-INDUCED ORGAN DYSFUNCTION” (The Florey Institute of Neuroscience and Mental Health, priority 2020, published 2023)

Test system: ovine sepsis induced by intravenous infusion of live E. coli
Excerpt: Using this model, the inventors have investigated the effect of mega dose intravenous vitamin C therapy on various parameters indicative of the progression of sepsis in sheep (Merino ewes, 35-45 kg; 1.5-2.0 years old). Sheep were divided into two groups, a vitamin C (sodium ascorbate) therapy group and a vehicle group as a control. Experimental protocols were approved by the Animal Ethics Committee of the Florey Institute of Neuroscience and Mental Health under guidelines of the National Health and Medical Research Council of Australia.
Preparatory surgical procedures were carried out as described in Lankadeva et al. (2018b). Briefly, two preparatory surgical procedures were performed under general anaesthesia. First, a carotid artery was exteriorised into a skin fold to form a carotid arterial loop to facilitate cannulation for measurement of arterial pressure and heart rate, and for blood sampling. During the same surgical procedure, a flow probe was placed around the pulmonary artery to measure cardiac output. Animals were allowed 3-4 weeks of recovery. Second, a flow probe was implanted around a renal artery to measure renal blood flow, a renal vein was cannulated for blood sampling and fibre optic probes were inserted into the renal cortex, renal medulla (within kidneys) and parietal cortex (brain) to measure tissue perfusion, oxygen tension and temperature.
During the second surgical procedure cannulae were implanted in the carotid artery for arterial pressure measurement and blood sampling and the jugular vein for infusion of fluids, vasopressors, Escherichia coli, sodium ascorbate and blood sampling, and a Foley catheter was inserted into the bladder to collect urine and monitor hourly urine output.
Following three days of recovery from the second surgical procedure, the experimental protocol (see FIG. 1) was initiated in conscious sheep, to avoid the confounding effects of general anaesthesia. Animals daily food and water intake and urine output was measured on a 24-hour basis during the course of the 5-day protocol.
First, a 24-hour baseline period was commenced, which included measurement of systemic haemodynamics, renal and brain perfusion and oxygenation, arterial, central venous and renal venous blood gases and lactate, and urine output. Arterial blood and urine samples were collected at set times during the experimental period.
After establishment of the 24-hour baseline period, gram-negative sepsis was induced by intravenous infusion of live E. coli (isolated from a patient with sepsis at Austin Health) as described in Lankadeva et al. (2018b), administered as a loading (bolus) infusion of 2.8×10^9 colony-forming units (CFU) over 30-minutes followed by a continuous infusion of 1.26×10^9 CFU/h for 30.5 hours. No prophylactic antibiotics, sedative or analgesic agents were administered during this protocol. The description in the following paragraphs is with reference to the protocol as shown schematically in FIG. 1.
At 23 hours of sepsis, when sheep had fulfilled the clinical criteria for sepsis (i.e. established hypotension, tachycardia, fever, lung injury, tachypnoea, hyperlactatemia and stage 1-2 acute kidney injury) animals were resuscitated with 30 mL/kg balanced crystalloid sodium lactate (Hartmann's solution infused at approximately 2500 ml/hr) for 30 mins, from 23-23.5 hours of sepsis.
A blocked randomization design was used to allocate sheep to treatment with sodium ascorbate or vehicle.

[1] = NaHCO3 infusion, two septic sheep
[2] = during the infusion of NaHCO3, two septic sheep

**Q.** With `O=C([O-])O.[Na+]` [NaHCO3, sodium bicarbonate] as the compound, how does the MAP [1] read?
**A.** decreased

**Q.** What about the RBF [1] of the same compound?
**A.** not reduced

**Q.** And the “arterial PO2” value [1]?
**A.** no improvement

**Q.** What about the “blood pH” value [1] of the same compound?
**A.** large increase

**Q.** What about the blood potassium [1] of the same compound?
**A.** hypokalemia

**Q.** And the blood sodium [1]?
**A.** hypernatremia

**Q.** What about the creatinine clearance [1] of the same compound?
**A.** no reduction in plasma creatinine or increase in creatinine clearance was observed

**Q.** And the heart rate [1]?
**A.** not reduced

**Q.** What about the norepinephrine dose required [1] of the same compound?
**A.** increasing doses of norepinephrine were required

**Q.** What about the plasma creatinine [1] of the same compound?
**A.** no reduction

**Q.** And the “renal medullary PO2” value [1]?
**A.** no improvement

**Q.** What about the renal medullary perfusion [1] of the same compound?
**A.** no improvement

**Q.** And the urine flow [1]?
**A.** urine flow increased

**Q.** What about the body temperature [2] of the same compound?
**A.** large increases

**Q.** What about the shivering [2] of the same compound?
**A.** intermittent shivering

**Q.** And the “reproduction of the effects of sodium ascorbate” value (hypertonic NaHCO3, equal sodium load, 8.4 g/kg over 30 minutes then 8.4 g/kg/hr for 6.5 hours, two septic sheep, data not shown)?
**A.** did not reproduce the effects of sodium ascorbate
